The subject of assay [1] is SSB-interacting proteins (SIPs). The following applies: cited from earlier work. An excerpt:
Most SSB-interacting proteins (SIPs) studied to date appear to share a conserved mode of SSB recognition in which they dock onto the SSB-Ct. Several SIPs have been co-crystalized with SSB-Ct peptides and their SSB-binding pockets have been validated in biochemical and/or genetic studies ([10],[12],[19],[20],[35]). SSB-Ct binding pockets have also been successfully predicted through computational methods ([36–39]). […] However, structural data ([31],[36],[108]) and predictions ([80]) reveal that the IDL is unstructured, and the length of IDLs across bacterial species varies greatly ([41]). […] Similarly, SSB fluorescent fusion proteins where GFP ...

The target in another assay is T1, RecG (WT) (Escherichia coli, UniProt P24230).
T1 construct: RecG was expressed in STL2669/pT7pol26 (a gift from Dr Susan Lovett, Brandeis University) with overexpression plasmid pEAW111; made in house; host or cells: E. coli STL2669/pT7pol26
Briefly: Fluorescence anisotropy binding of 6-FAM-labelled SSB peptides to wildtype RecG. Details: species or system E. coli. The following applies: read-out: FP K D; WT RecG; fluorescence anisotropy; 10 nM N-terminal 6-FAM peptide; 0.2 M potassium glutamate, 25 mM Tris-acetate pH 7.6, 10 mM magnesium acetate; 30 min at room temperature, read at 25°C; one site fit; triplicate. As to the method: SSB peptides (sequences listed in Figure 2) were designed with an N-terminal tryptophan residue for quantification and N-terminal 6-FAM label (Genscript). RecG was incubated with 0.2 M potassium glutamate, 1 mM DTT, 0.1 μg/ml BSA, 1 × RecA buffer (25 mM Tris-acetate, pH 7.6, 5% w/v glycerol, 3 mM potassium glutamate, 10 mM magnesium acetate, 1 mM DTT), and 10 nM labeled peptide at room temperature for 30 min. Fluorescence polarization (FP) values were measured at 25°C using a Beacon 2000 Fluorescence Polarization System. Polarization values were normalized to the FP value measured at 0 nM RecG. Normalized FP was converted to normalized anisotropy. Experiments were performed in triplicate, and the data were fit to a one site binding model (, where X is ligand concentration, Y is normalized anisotropy, Bmax is the maximum anisotropy, and KD is the dissociation constant) using GraphPad Prism Software.
Figure 2. RecG binds directly and specifically to the SSB-Ct. (A) Fluorescence anisotropy binding isotherms for RecG binding to SSB-Ct (black), SSB113 (violet), SSBΔF (blue), or SSB IDL (green) peptides. Peptide sequences are listed in parentheses with * representing an N-terminal 6-FAM label. Anisotropy values are normalized to the reading at 0 μM RecG. […] (B–E) ITC analysis of RecG/SSB binding. Thermograms (top) and binding isotherms (bottom) of titrations of (B) full-length SSB, (C) SSB-Ct peptide, (D) SSBΔF or (E) SSBΔF peptide into RecG solutions.
Two models explaining how RecG interacts with SSB have been proposed - RecG could interact with the SSB-Ct ([29]) or RecG could interact with the IDL ([48],[49]). To begin testing each model, we used an equilibrium fluorescence anisotropy assay to measure RecG binding to fluorescently labeled SSB-Ct or IDL peptides (Figure 2). Titration of RecG with the SSB-Ct peptide led to an increase in fluorescence anisotropy, which occurs when protein binding slows the tumbling rate of a labeled peptide ([90]). […] KD values in the low micromolar range are typical for SSB/SIP complexes ([10],[12–14],[19],[23]). […]
Background: Polarisation of emitted light reports the rotation of a fluorescent probe.

The subject of another assay is AlkB protein. The following applies: peptide identical to IDL residues 152–169; cited from earlier work. An excerpt: The IDL peptide that was used included residues 152–169 of SSB, which has two of the three PxxP motifs in E. coli SSB.
In assay [2] the test system is E. coli ssb mutant strains (ssbΔ151–166, ssbΔ139–164, ssbΔ130–166). As to the kind of experiment: DNA damage sensitivity spot plate assay of ssb IDL deletion strains. It is filed as cell-based. The following applies: ssbΔ151–166, ssbΔ139–164 and ssbΔ130–166 versus MG1655; LB plates, 37°C overnight.
Procedure: MG1655, recG, and ssb IDL mutant strains were tested for sensitivity to UV light, ciprofloxacin, or mitomycin C. A ΔrecA strain (EAW20) was used as a sensitive control in the ssb IDL experiments. Overnight cultures set in biological triplicate were used to inoculate fresh LB. Cells were grown at 37°C with shaking to an OD600 nm of 0.2 and serially diluted 10-fold in 1 × PBS. Ten μl of each dilution was spotted onto square LB agar plates (for UV) or LB plates containing DNA damaging agents (ciprofloxacin or mitomycin C) poured fresh and kept in the dark. UV sensitivity plates were exposed to shortwave light (254 nm) using a Spectrolinker XL-1000 UV crosslinker (Spectronics Corp) and incubated at 37°C overnight in the dark. Plates were imaged on an iBright Imaging System. […] Briefly, dilutions of each strain were plated onto an LB plate exposed to 0, 50 or 100 J/m^2. Plates were incubated under foil at 37°C overnight, and colonies were counted to obtain colony forming units (CFU)/ml and percent relative survival values. […]
(A) Spot plate assay showing growth of 10-fold serially diluted MG1655 (wildtype ssb), ΔrecA, ssbΔ151–166, ssbΔ139–164, ssbΔ130–166, and ssbΔ120–166 strains exposed to varying UV (top), ciprofloxacin (center), or mitomycin C (bottom) doses. (B) Quantification of strain UV percent survival relative to CFU/ml of the strain at no UV exposure.
Assay [3] deals with T2, RecG DNA helicase, wildtype (E. coli, UniProt P24230 1-693).
T2 construct: RecG DNA helicase, E. coli, expressed from overexpression plasmid pEAW111; No tag is mentioned; also called WT RecG; source: E. coli STL2669/pT7pol26 with pEAW111, purified (ammonium sulfate, DEAE, Source 15Q, Source 15S)
T2 sequence (looked up): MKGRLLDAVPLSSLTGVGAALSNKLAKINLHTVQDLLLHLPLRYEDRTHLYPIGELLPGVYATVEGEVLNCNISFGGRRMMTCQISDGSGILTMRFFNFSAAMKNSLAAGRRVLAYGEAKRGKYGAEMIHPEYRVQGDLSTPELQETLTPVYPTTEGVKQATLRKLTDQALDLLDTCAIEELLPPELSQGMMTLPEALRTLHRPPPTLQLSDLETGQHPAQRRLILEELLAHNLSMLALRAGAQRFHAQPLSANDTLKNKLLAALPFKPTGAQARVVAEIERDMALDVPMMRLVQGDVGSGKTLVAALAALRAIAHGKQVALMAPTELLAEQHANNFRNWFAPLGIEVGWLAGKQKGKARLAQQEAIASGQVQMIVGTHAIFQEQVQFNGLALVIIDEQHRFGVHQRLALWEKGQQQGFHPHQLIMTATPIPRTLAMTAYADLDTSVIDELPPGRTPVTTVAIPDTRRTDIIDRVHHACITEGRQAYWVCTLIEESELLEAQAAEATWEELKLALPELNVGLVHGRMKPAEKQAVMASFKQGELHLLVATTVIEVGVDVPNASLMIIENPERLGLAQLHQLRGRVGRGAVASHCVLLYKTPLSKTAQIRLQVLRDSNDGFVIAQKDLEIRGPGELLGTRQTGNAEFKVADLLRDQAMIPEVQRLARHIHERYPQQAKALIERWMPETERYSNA
As to the kind of experiment: fluorescence polarisation; RecG titrated against 10 nM 6-FAM peptide; 0.2 M potassium glutamate, 1 mM DTT, 0.1 μg/ml BSA, 1x RecA buffer (25 mM Tris-acetate pH 7.6, 5% glycerol, 10 mM magnesium acetate); 30 min at room temperature, read at 25°C; one site binding model, triplicate. Conditions: both partners purified.

The next assay deals with T3, RecG R95A (E. coli, UniProt P24230 1-693, R95A).
T3 construct: RecG DNA helicase, E. coli, R95A introduced into pEAW111 to give pEAW1324; The preparation included a very weak nickase contaminant; source: E. coli STL2669/pT7pol26 with pEAW1324, purified (same scheme as wildtype RecG)
T3 sequence (looked up): T2 sequence (looked up) with R95A
The assay is described as above. Conditions: both partners purified.

For assay [4], the target named is SSBΔF peptide, 6-FAM labelled (E. coli). The description is as above.
For assay [5], the target named is SSB113 peptide, 6-FAM labelled (E. coli) (UniProt P0AGE0). The description is as above.
Chain of SSB113 peptide, 6-FAM labelled (E. coli) (P0AGE0 whole entry, looked up): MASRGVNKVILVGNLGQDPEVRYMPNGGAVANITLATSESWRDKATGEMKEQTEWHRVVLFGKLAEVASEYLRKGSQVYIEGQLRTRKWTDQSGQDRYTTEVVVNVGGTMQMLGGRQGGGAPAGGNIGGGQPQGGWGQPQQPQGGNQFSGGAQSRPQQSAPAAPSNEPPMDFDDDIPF

Changes are numbered by the printed parent chain. Where a SMILES comes first, the peptide text is derived from it. Where no end group is shown, it is not given here. The star is where a group is joined. 6FAM = O=C1OC2(c3ccc(O)cc3Oc3cc(O)ccc32)c2cc(C(=O)*)ccc21

The values below come from publication PMC10164576, “Interaction with the carboxy-terminal tip of SSB is critical for RecG function in E. coli” (Nucleic Acids Research, 2023).

As to “SSB113 protein: SSB with a Ser for the penultimate Pro of the SSB-Ct (ssb-113 mutation)”, the “affinity for SIPs, in words” value in assay [1] (SSB113) is reported as “greatly reduced affinity for SIPs”.
As for `C[C@H](NC(=O)[C@H](Cc1c[nH]c2ccccc12)NC(=O)c1ccc2c(c1)C1(OC2=O)c2ccc(O)cc2Oc2cc(O)ccc21)C(=O)N[C@@H](CCC(N)=O)C(=O)N[C@@H](CO)C(=O)N[C@@H](CCCNC(=N)N)C(=O)N1CCC[C@H]1C(=O)N[C@@H](CCC(N)=O)C(=O)N[C@@H](CCC(N)=O)C(=O)N[C@@H](CO)C(=O)N[C@@H](C)C(=O)N1CCC[C@H]1C(=O)N[C@@H](C)C(=O)N[C@@H](C)C(=O)N1CCC[C@H]1C(=O)N[C@@H](CO)C(=O)N[C@@H](CC(N)=O)C(=O)N[C@@H](CCC(=O)O)C(=O)N1CCC[C@H]1C(=O)O` [IDL 152–169 peptide] (6FAM-WAQSRPQQSAPAAPSNEP-OH; C-terminus assumed), the Kd at RecG (WT) was more than 30 µM. Besides, in the assay with AlkB protein, the “binding to AlkB, in words” value is “previously reported to bind to the AlkB protein”.
With `CO[C@@]12[C@H](COC(N)=O)C3=C(C(=O)C(C)=C(N)C3=O)N1C[C@@H]1N[C@@H]12` [mitomycin C], in assay [2], the “DNA damage sensitivity of ssb IDL deletion strains, in words” value was “no change in DNA damage sensitivity compared to MG1655”.
Take “SSBΔF: SSB protein variant lacking the C-terminal-most Phe residue”: the “interaction with SIPs, in words (SSB-Ct deletions)” value in assay [1] (in vitro) is “eliminates interactions between SSB and SIPs in vitro”.
Regarding `O=C(O)c1cn(C2CC2)c2cc(N3CCNCC3)c(F)cc2c1=O` [ciprofloxacin], the “DNA damage sensitivity of ssb IDL deletion strains, in words” value in assay [2] is on record as “no change in DNA damage sensitivity compared to MG1655”.

B1: SSB-Ct peptide, 6-FAM labelled (peptide)
peptide: 6FAM-WMDFDDDIPF
notes: N-terminal tryptophan residue added for quantification; C-terminal tip of SSB, E. coli; also called fluorescently labeled SSB-Ct peptide; source: synthetic peptide (Genscript)
With B1, the Kd in assay [3] was 3.1 ± 0.4 µM; with RecG R95A, 1800 ± 400 nM.

B2: RecG DNA helicase, wildtype (enzyme)
chain: T2 sequence (looked up)
For the molecule B2, the values for the Kd in assay [4] and in assay [5] were more than 30 µM and 23 µM, respectively.
